Laboratory results reported in patent US5525626A (priority 1989, dated 1996).

Tests used:
[1] = tested on: LNCap cells; experiment: cell growth in combination with testosterone; assay type: cell-based, human; conditions: FIG. 9
[2] = tested on: T4 lymphocytes; conditions: low concentrations; cited from earlier work
[3] = tested on: malignant cell growth; conditions: cited from earlier work
[4] = tested on: U 178 MG, TP 410 N, TP 242 MG, TP 336 MG and A 431 cells; experiment: growth curves of five tumor cell lines, comparison with coumarin; assay type: cell-based, human; conditions: corresponding concentrations, up to 12 days
Protocol: (§1) The neuroblastoma cell line and the three glioblastoma cell lines were cultivated in Ham's F10 medium enriched with 10% fetal calf serum (FCS) and the usual quantity of penicillin, streptomycin (Pen/Strep) and glutamine. The epidermoidal cell line was cultivated in modified Eagle's Medium (MEM), likewise enriched with 10% (FCS) and the usual quantity of glutamine and Pen/Strep.
In each case 5×10^4 cells were plated out in T25 bottles, the untreated cells being incubated in analogous conditions as control. The cell count was microscopically determined after 3, 5, 7, 10 and 12 days.

[5] = tested on: U 178 MG, TP 410 N, TP 242 MG, TP 336 MG and A 431 cells; conditions: coumarin in the corresponding concentrations
Protocol: as §1
Untreated cells served as a control. Subsequently, the cells were incubated for 8 hours with ^3 H-thymidine. The radioactivity absorbed by the cells was measured in the usual way.

SMILES: O=c1oc2ccccc2cc1O [3-OH-1,2-BP, reference compound]
- effect on cell growth, comparison compound [1]: essentially ineffective

SMILES: O=P1(N(CCCl)CCCl)NCCCO1 (stereo not drawn) [cyclophosphamide]
- biological activity of T4 lymphocytes [2]: inhibits the biological activity of T4 lymphocytes

SMILES: O=c1ccc2ccccc2o1 [coumarin, 1,2-Benzopyrone, reference compound]
- malignant cell growth ([3]; cell cultures and animal experiments): inhibits malignant cell growth in cell cultures and in animal experiments
- side-effects in mammals ([3]; compared with biological activity): side-effects in the case of mammals are to be disregarded compared with biological activity
- growth-inhibiting activity (growth curve) versus control [4]: no significant difference could be observed
- difference from control in pre-trial [5]: no significant difference could be observed
